Data from patent publication US20220249525A1, “Fatty Acid Compounds for Prevention and Treatment of Neurodegenerative Disorders” (T OMEGA AS, priority 2019, published 2022).

Columns and labels:
Format in all cases: cell-based
[1] = test system: HeLaNRF1/c4 reporter cells; assay: Gene expression (qPCR) in HeLaNRF1/c4 reporter cells; settings: long-term treatment
Method: The HeLaNRF1/c4 reporter cells were employed to investigate effects of the modified fatty acids on NRF1-regulated mitochondrial biogenesis. The cells (250,000) were seeded in T75 flasks and incubated for 3 hours to allow attachment. The compounds were dissolved in DMSO and diluted in culture medium to provide the final concentration. DMSO at a concentration equivalent to the highest compound concentration was added to control cultures. Resveratrol and AICAR were used as positive controls. Resveratrol has not previously been tested in this reporter model, but we found it relevant to include it for purposes of experimental and mechanistic comparisons. After 3 days of treatment the media was replaced with fresh media containing the corresponding compound. On day 5, the cells were harvested and the cultures split into three fractions: One fraction was used for detection of mitoGFP expression by flow cytometry, to assess effects on NRF-1 regulated mitochondrial biogenesis. Flow cytometry analysis was performed as previously described. Another fraction was used for extraction of RNA and subsequent gene expression analysis using quantitative PCR (see below). The last fraction was employed to investigate effects on mitochondrial respiratory function by extracellular flux analysis (described above). The experiment was replicated three times.
Total RNA was extracted from harvested cells (RNAeasy kit Qiagen, Hilden, Germany). The RNA content was quantified on Nanodrop 1000 Spectrophotometer (Thermo Scientific). From 1 μg total RNA, cDNA was synthesized using High-Capacity Reverse Transcription Kit (Applied Biosystems, Carlsbad, Calif., US). Gene quantification was done using TaqMan probes for gene expression assays (Applied Biosystems). Probes used were: PGC1α (PPARG coactivator 1α), Hs00173304_m1; HIF1α (hypoxia inducible factor 1α), Hs00153153_m1; PDK1 (pyruvate dehydrogenase kinase 1), Hs01561847_m1; PDK4, (pyruvate dehydrogenase kinase 4), Hs01037712_m1; SIRT4 (sirtuin 4) Hs01015516_g1; ACOX1 (acyl-CoA oxidase 1) Hs01074241_m1; as reference genes, we used; Eukaryotic 18S rRNA Hs99999901_s1; actin beta Hs99999903_m1. Fold change was calculated as geometric mean of ΔΔCt of the two reference genes.

SH-SY5Y cells = assay: WST-1 cell viability assay in SH-SY5Y cells; settings: 4 days, 31-125 μM
Method: (§1) The fatty acids (FAs) TTA, tr-TTA, N-TTA, tr-N-TTA and (PA) were complexed with FBS following the same procedure, differing only in final stock concentration, due to variation in solubility. Approximately 0.07 g of FA was weighed in a 10 ml sterile serum tube (BD Vacutainer®, catalog no. 368430) and dissolved in sterile filtrated 0.1 M sodium hydroxide (NaOH) of a volume giving 25 mM FA, controls without FA were made, containing only NaOH and FBS. A syringe (Sterican®, catalog no. 4657577) was pierced through the rubber cap of the serum tube, and the tube was placed in an 80° C. water bath until the FAs were dissolved. Each FA-solution was then diluted in inactivated FBS to stock concentration 1 mM (N-TTA, tr-N-TTA), and 2 mM by adding the FA to a volume of 100% FBS after heating the FBS to 45° C. in a water bath. The transfer of FA to FBS had to be executed controlled and swiftly to avoid the formation of precipitates. If any precipitates in the solution were visible, the FA and a new volume of FBS were reheated, and the procedure performed again. Following successful complexation, the stock solutions were stored at −20° C. in 1 ml aliquots (CryoPure tube, Sarstedt AG & Co, Nümbrecht, Germany).
(§2) The WST-1 cell proliferation assay was performed using the kit from Roche (table 4.2.) and its accompanying procedure (version 16, February 2011) (134). The number of cells seeded to each well in the 96-well plates (Corning Inc., catalog no. 353072) varied depending on the treatment time and cell type (table 3.).
(§3) Cell suspension and medium were then transferred to each well in a volume of 100 μl in total. Subsequently, the plates were incubated for 24 hours to make the cells settle. The next day, 100 μl with FA complexed with FBS or diluted in DMSO was added to row A or B in the 96-well plate to give a defined concentration. The solution was then mixed with a pipette, and 100 μl of the medium with FA was transferred to the next well in the same column, mixed by pipetting up and down at least five times before 100 μl was transferred again to the next well in the column. This procedure was repeated until the second last, or last well in each column was reached, making a series of two-fold dilution of the FAs in the cell medium. Two parallels were performed for every treatment per run. After the addition of FAs, the plates were incubated for 24-96 hours depending on the length of the treatment.
Following the FA-treatment, the cells were studied under a microscope to ensure that visual observations matched the measured absorbance and cell activity in the assay. Subsequently, 10 μl WST-1 reagent was added to each well, and the plates were incubated for 3 hours. Due to high activity in the HuH-7 cell line, the WST-1 reagent was diluted 1:1 with PBS. Before the measurement of absorbance, the plates were placed on a shaker for 1 minute ensuring thoroughly mixing of the wells. The plates were then put straight into the spectrophotometer (SpectraMax Plus 384 Microplate Reader, Molecular Devices Corporation, San Jose, Calif., USA) to perform the measurements. […] The absorbance of the samples was measured at 450 nm, and the reference wavelength was set to 650 nm. For each well, the measured absorption at 650 nm was subtracted from the absorption at 450 nm. The measured absorbance for the treated cells was then compared to the controls (blank) containing only cells and growth medium.

HuH-7 cells = assay: WST-1 cell viability assay in HuH-7 cells
Method: as §1, §2, §3
Following the FA-treatment, the cells were studied under a microscope to ensure that visual observations matched the measured absorbance and cell activity in the assay. Subsequently, 10 μl WST-1 reagent was added to each well, and the plates were incubated for 3 hours. Due to high activity in the HuH-7 cell line, the WST-1 reagent was diluted 1:1 with PBS. Before the measurement of absorbance, the plates were placed on a shaker for 1 minute ensuring thoroughly mixing of the wells. The plates were then put straight into the spectrophotometer (SpectraMax Plus 384 Microplate Reader, Molecular Devices Corporation, San Jose, Calif., USA) to perform the measurements. The accompanying software was used (SoftMax Pro, Molecular Devices Corporation, San Jose, Calif., USA) to obtain the results. The absorbance of the samples was measured at 450 nm, and the reference wavelength was set to 650 nm. For each well, the measured absorption at 650 nm was subtracted from the absorption at 450 nm. The measured absorbance for the treated cells was then compared to the controls (blank) containing only cells and growth medium.

CCCCCCCCCCCCCCNCC(=O)O [N-TTA, N-tetradecylglycine]
PDK4 expression [1]: significantly increased
PGC1α expression ([1]; vs control): significant increase
WST-1 activity compared to untreated cells (SH-SY5Y cells): about 110%
WST-1 activity compared to untreated cells (HuH-7 cells; 2 days, 16 μM, complexed with FBS): 116%
WST-1 activity compared to no treatment (HuH-7 cells; 2 days, 125-250 μM): 50-60%
WST-1 activity (HuH-7 cells; 4 days, 1000 μM): The same result was true
